Legend:
[1] = target: Bcr/Abl fusion protein (Homo sapiens, UniProt P00519); test: Inhibition of Bcr-Abl (unknown origin) after 1 hr by luminescence assay; type: protein assay
[2] = tested on: K562; test: cells; conditions: Homo sapiens, K562, 48 h
[3] = target: K562 (Homo sapiens); test: Antiproliferative activity against human K562 cells by MTT assay

Bcr/Abl fusion protein, sequence (P00519 whole entry, the tested form may be a part): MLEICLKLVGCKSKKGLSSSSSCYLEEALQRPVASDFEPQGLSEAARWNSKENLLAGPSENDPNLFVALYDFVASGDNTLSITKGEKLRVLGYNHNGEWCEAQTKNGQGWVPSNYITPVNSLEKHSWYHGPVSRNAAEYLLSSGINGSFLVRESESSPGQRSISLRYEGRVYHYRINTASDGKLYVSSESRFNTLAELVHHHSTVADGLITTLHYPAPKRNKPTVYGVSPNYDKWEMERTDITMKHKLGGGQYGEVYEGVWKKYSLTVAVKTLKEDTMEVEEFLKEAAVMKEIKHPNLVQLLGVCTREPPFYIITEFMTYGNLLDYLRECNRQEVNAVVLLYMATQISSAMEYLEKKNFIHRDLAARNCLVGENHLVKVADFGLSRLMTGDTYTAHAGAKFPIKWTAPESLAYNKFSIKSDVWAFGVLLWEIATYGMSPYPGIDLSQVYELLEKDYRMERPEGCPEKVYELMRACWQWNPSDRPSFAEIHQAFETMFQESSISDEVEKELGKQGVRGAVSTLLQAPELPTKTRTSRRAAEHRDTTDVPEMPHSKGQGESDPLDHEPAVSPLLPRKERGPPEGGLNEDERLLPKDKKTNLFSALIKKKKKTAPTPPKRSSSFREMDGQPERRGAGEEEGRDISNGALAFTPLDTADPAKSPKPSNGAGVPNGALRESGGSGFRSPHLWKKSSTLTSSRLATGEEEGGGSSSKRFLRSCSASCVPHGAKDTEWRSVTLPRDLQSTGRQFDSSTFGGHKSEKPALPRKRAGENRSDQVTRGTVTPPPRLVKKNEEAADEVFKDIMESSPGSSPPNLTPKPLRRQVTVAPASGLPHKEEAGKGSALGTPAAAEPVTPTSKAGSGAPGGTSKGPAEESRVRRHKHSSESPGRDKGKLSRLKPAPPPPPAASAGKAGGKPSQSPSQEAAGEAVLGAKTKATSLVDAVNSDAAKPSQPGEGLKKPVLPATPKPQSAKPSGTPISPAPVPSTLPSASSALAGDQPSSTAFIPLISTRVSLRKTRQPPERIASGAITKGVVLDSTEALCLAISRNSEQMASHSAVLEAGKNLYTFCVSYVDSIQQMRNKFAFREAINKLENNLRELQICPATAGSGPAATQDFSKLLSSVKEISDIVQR
Bcr/Abl fusion protein, sequence (P11274 whole entry, further chain, the tested form may be a part): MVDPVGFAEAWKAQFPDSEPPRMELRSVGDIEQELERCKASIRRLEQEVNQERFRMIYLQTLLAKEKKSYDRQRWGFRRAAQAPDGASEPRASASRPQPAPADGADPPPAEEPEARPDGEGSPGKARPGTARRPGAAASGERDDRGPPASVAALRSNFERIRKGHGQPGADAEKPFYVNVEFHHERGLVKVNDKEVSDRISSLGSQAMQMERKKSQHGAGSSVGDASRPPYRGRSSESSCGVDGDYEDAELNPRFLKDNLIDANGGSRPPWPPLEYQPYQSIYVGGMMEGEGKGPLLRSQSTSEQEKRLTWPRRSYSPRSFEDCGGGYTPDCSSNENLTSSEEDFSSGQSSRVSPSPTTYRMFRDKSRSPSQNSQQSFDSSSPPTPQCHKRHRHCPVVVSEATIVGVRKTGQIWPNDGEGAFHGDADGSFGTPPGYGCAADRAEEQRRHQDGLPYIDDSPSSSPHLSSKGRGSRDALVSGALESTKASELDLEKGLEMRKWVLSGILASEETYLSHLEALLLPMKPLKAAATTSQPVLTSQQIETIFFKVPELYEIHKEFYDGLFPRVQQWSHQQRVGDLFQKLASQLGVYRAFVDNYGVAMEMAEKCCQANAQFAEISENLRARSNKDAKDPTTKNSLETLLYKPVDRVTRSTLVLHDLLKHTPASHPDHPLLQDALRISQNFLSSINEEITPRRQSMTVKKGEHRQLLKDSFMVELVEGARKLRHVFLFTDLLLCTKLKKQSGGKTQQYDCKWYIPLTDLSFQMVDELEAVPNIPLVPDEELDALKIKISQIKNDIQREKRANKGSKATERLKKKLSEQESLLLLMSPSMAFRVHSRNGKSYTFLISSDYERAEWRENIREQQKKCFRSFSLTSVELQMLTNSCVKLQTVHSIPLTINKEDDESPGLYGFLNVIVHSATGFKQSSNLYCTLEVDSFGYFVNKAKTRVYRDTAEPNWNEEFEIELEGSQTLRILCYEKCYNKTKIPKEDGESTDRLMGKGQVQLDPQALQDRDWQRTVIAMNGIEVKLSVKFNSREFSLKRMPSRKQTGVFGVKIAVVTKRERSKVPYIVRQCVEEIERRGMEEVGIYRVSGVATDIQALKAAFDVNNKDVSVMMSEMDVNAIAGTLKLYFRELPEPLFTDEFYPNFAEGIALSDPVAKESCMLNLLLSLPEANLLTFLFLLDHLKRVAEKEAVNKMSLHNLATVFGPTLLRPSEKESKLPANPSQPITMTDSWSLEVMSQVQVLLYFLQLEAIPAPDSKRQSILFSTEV

Structure (SMILES)	IC50 [1]	IC50 [2]	IC50 [3]
COc1ccc(Nc2cc(-c3ccc(C(=O)NCCNC(=O)c4cccc(OC)c4)cc3)ncn2)cc1	8.53 µM	11.2 µM	–
COc1ccc(Nc2cc(-c3ccc(C(=O)NCCNC(=O)c4ccccc4C)cc3)ncn2)cc1	14.5 µM	38.5 µM	–
COc1ccc(Nc2cc(-c3ccc(C(=O)NCCNC(=O)c4ccc(C(C)(C)C)cc4)cc3)ncn2)cc1	> 100 µM	0.83 µM	–
COc1ccc(Nc2cc(-c3ccc(C(=O)NCCNC(=O)c4ccc(F)cc4)cc3)ncn2)cc1	–	10.9 µM	–
COc1ccc(Nc2cc(-c3ccc(C(=O)NCCNC(=O)c4ccc(F)c(F)c4)cc3)ncn2)cc1	4.4 µM	6.2 µM	–
COc1ccc(Nc2cc(-c3ccc(C(=O)NCCNC(=O)c4c(F)cccc4Cl)cc3)ncn2)cc1	6.2 µM	8.5 µM	–
COc1ccc(Nc2cc(-c3ccc(C(=O)N4CCN(C(=O)c5ccccc5F)CC4)cc3)ncn2)cc1	8.96 µM	8.96 µM	–
COc1ccc(Nc2cc(-c3ccc(C(=O)N4CCN(C(=O)c5ccccc5Cl)CC4)cc3)ncn2)cc1	–	73.9 µM	–
COc1ccc(Nc2cc(-c3ccc(C(=O)N4CCN(C(=O)c5ccc(OC)cc5)CC4)cc3)ncn2)cc1	> 100 µM	> 100 µM	–
COc1ccc(Nc2cc(-c3ccc(C(=O)N4CCN(C(=O)c5cccc(F)c5)CC4)cc3)ncn2)cc1	–	42.2 µM	–
COc1ccc(Nc2cc(-c3ccc(C(=O)N4CCN(C(=O)c5ccc(Cl)cc5Cl)CC4)cc3)ncn2)cc1	–	35 µM	35 µM
COc1ccc(Nc2cc(-c3ccc(C(=O)N4CCN(C(=O)c5cccc(C(F)(F)F)c5)CC4)cc3)ncn2)cc1	–	51.9 µM	51.9 µM
COc1ccc(Nc2cc(-c3ccc(C(=O)N4CCN(C(=O)c5cccc(C)c5)CC4)cc3)ncn2)cc1	> 100 µM	> 100 µM	–

Now from value to compound:

IC50 [1]	IC50 [2]	IC50 [3]	Structure (SMILES)
2.59 µM	65.3 µM	–	COc1ccc(Nc2cc(-c3ccc(C(=O)NCCNC(=O)c4cccc(C(F)(F)F)c4)cc3)ncn2)cc1
9.25 µM	0.85 µM	–	COc1ccc(Nc2cc(-c3ccc(C(=O)NCCNC(=O)c4cccc(N(C)C)c4)cc3)ncn2)cc1
11.3 µM	33.9 µM	–	COc1ccc(Nc2cc(-c3ccc(C(=O)NCCNC(=O)c4cccc(F)c4)cc3)ncn2)cc1
9.24 µM	0.64 µM	–	COc1ccc(Nc2cc(-c3ccc(C(=O)NCCNC(=O)c4ccccc4Cl)cc3)ncn2)cc1
0.017 µM	35.7 µM	–	COc1ccc(Nc2cc(-c3ccc(C(=O)N4CCN(C(=O)c5ccc(F)cc5)CC4)cc3)ncn2)cc1
–	15.3 µM	15.3 µM	COc1ccc(Nc2cc(-c3ccc(C(=O)N4CCN(C(=O)c5ccc(F)c(F)c5)CC4)cc3)ncn2)cc1
–	> 100 µM	> 100 µM	COc1ccc(Nc2cc(-c3ccc(C(=O)N4CCN(C(=O)c5cccc(N(C)C)c5)CC4)cc3)ncn2)cc1
